Structures are written as SMILES. The source made the active and inactive calls. No cut-off for these calls is given here. Where only a bound is given, the exact number is not on record here.

The values below come from ChEMBL document CHEMBL1138616, “Molecular design, synthesis and docking study of benz[b]oxepines and 12-oxobenzo[c]phenanthridinones as topoisomerase 1 inhibitors” (Bioorg Med Chem Lett, 2009).

Experiment [1] concerns HeLa. Description: Cytotoxicity against human HeLa cells by sulforhodamine B assay. It counts as functional, cell-based.
The subject of experiment [2] is A549. Description: Cytotoxicity against human A549 cells by sulforhodamine B assay. It counts as functional, cell-based.
For experiment [3], the system named is HL-60. Description: Cytotoxicity against human HL60 cells by sulforhodamine B assay. It counts as functional, cell-based.
Experiment [4] addresses T1, DNA topoisomerase 1 (Homo sapiens) (UniProt P11387).
T1 sequence (whole entry): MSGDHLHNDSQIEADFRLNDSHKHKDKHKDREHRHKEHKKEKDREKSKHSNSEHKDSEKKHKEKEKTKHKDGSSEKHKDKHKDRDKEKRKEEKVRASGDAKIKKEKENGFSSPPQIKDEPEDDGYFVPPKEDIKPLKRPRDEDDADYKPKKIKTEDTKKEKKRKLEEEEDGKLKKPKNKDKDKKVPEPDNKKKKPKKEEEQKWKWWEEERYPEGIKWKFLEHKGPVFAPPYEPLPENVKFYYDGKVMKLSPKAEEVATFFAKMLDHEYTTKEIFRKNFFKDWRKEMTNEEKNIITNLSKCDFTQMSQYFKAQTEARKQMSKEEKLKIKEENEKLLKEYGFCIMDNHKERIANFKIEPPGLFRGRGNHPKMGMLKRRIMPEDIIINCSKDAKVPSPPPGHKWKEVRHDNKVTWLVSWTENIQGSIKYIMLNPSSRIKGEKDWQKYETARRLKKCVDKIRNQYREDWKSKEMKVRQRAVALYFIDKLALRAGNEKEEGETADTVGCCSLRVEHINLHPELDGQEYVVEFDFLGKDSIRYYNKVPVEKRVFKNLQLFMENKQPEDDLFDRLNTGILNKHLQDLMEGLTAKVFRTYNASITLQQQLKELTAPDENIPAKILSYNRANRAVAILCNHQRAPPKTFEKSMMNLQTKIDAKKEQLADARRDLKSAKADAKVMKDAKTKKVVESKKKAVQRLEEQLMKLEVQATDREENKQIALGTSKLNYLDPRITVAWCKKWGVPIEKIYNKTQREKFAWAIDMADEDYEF
Description: Inhibition of DNA topoisomerase 1 assessed as relaxation of supercoiled Escherichia coli pBR322 DNA at 100 uM.

As for `COc1cc2c3c(n(C)c(=O)c2cc1OC)-c1ccccc1OC3C` (stereo unspecified), the IC50 (usually the concentration that gives 50% inhibition) in experiment [1] is 9.02 µM; in experiment [2], 13.8 µM; in experiment [3], 8.54 µM. Also, the inhibition – broadly, how much of the control response was suppressed – in experiment [4] amounted to 5.3%.

As for `COCOc1ccccc1-c1c(Br)c2ccc(C)cc2c(=O)n1C`, the half-inhibitory concentration (IC50) in experiment [1] worked out at 17.8 µM; in experiment [2] it was 82 µM; in experiment [3], 17.2 µM. The inhibition result in experiment [4] was “inactive”.

Consider `COc1ccc(Cn2c(-c3ccccc3O)c(Br)c3cc(C)ccc3c2=O)cc1`, for which the values for the half-maximal inhibitory concentration (IC50) in experiment [1], in experiment [2] and in experiment [3] were 20.4 µM, 53 µM and 24.4 µM, respectively. Further, the inhibition entry in experiment [4] was “inactive”.

For `C=COc1ccccc1-c1c(Br)c2ccccc2c(=O)n1Cc1ccc(OC)cc1`, the IC50 in experiment [1] was 36.5 µM; in experiment [2], more than 100 µM; in experiment [3] it was 59.5 µM. Further, in experiment [4], the inhibition result is “inactive”.

On to `Cc1ccc2c3c(n(C)c(=O)c2c1)-c1ccccc1OC3C` (stereo unspecified), for which the values for the IC50 in experiment [1] and in experiment [2] were 21.9 µM and 66.9 µM, respectively. Also, the inhibition result in experiment [4] is “inactive”.

For `COc1ccc(Cn2c3c(c4ccc(C)cc4c2=O)CCOc2ccccc2-3)cc1`, the results for the concentration for half-maximal inhibition (IC50) in experiment [1], in experiment [2] and in experiment [3] were 4.54 µM, 4.56 µM and 4.4 µM, respectively. In experiment [4], the inhibition entry was “inactive”.

Regarding `COc1ccc(Cn2c3c(c4ccccc4c2=O)CCOc2ccccc2-3)cc1`, the concentration for half-maximal inhibition (IC50) stood at 4.78 µM in experiment [1], 11 µM in experiment [2] and 4.49 µM in experiment [3]. Also, in experiment [4], the inhibition came out at 94.5%.

Regarding `COCOc1ccccc1-c1cc2ccccc2c(=O)[nH]1`, the 50% inhibitory concentration (IC50) in experiment [1] was found to be 0.62 µM; in experiment [2], 23.6 µM; in experiment [3] it was 0.62 µM. Besides, the inhibition entry in experiment [4] is “inactive”.

Consider `Cc1ccc2c(=O)n(C)c3c(c2c1)CCOc1ccccc1-3`, for which the results for the half-maximal inhibitory concentration (IC50) in experiment [1], in experiment [2] and in experiment [3] were 41.6 µM, 61.3 µM and 33.6 µM, respectively. In addition, in experiment [4], the inhibition result was “inactive”.

As to `COCOc1ccccc1-c1cc2ccccc2c(=O)n1C`, the concentration for half-maximal inhibition (IC50) was 64.6 µM in experiment [1], more than 100 µM in experiment [2] and 59.5 µM in experiment [3]. The inhibition entry in experiment [4] was “inactive”.

As for `COc1cc2c3c(n(C)c(=O)c2cc1OC)-c1ccccc1OCC3`, the concentration for half-maximal inhibition (IC50) in experiment [1] was found to be 38.1 µM; in experiment [2], 73 µM; in experiment [3], 34.8 µM. The inhibition in experiment [4] came out at 98.2%.

Regarding `Cn1c2c(c3ccccc3c1=O)CCOc1ccccc1-2`, the IC50 in experiment [1] was 19.7 µM; in experiment [2], 66.8 µM; in experiment [3], 37.6 µM. The inhibition result in experiment [4] was “inactive”.

Turning to `COCOc1ccccc1-c1c(Br)c2cc(OC)c(OC)cc2c(=O)n1C`, the IC50 in experiment [1] was 99.3 µM; in experiment [2] it was more than 100 µM; in experiment [3], 37.8 µM. Moreover, in experiment [4], the inhibition amounted to 40.7%.

For `C=COc1ccccc1-c1c(Br)c2cc(C)ccc2c(=O)n1Cc1ccc(OC)cc1`, the results for the concentration for half-maximal inhibition (IC50) in experiment [1], in experiment [2] and in experiment [3] were 14.8 µM, 67.8 µM and 29.2 µM, respectively. Further, the inhibition result in experiment [4] is “inactive”.

As to `Cc1ccc2c3c(n(C)c(=O)c2c1)-c1ccccc1OCC3`, the results for the IC50 in experiment [1], in experiment [2] and in experiment [3] were 8.76 µM, 30.3 µM and 14.1 µM, respectively. Besides, the inhibition in experiment [4] amounted to 11.9%.

`COc1ccc(Cn2c(-c3ccccc3O)c(Br)c3ccccc3c2=O)cc1`: the values for the IC50 in experiment [1], in experiment [2] and in experiment [3] were 36.8 µM, 71.2 µM and 31.6 µM, respectively. Moreover, in experiment [4], the inhibition entry was “inactive”.

Consider `COCOc1ccccc1-c1cc2cc(C)ccc2c(=O)[nH]1`, for which the IC50 in experiment [1] is 0.17 µM; in experiment [2] it was more than 100 µM; in experiment [3] it was 0.16 µM. In addition, in experiment [4], the inhibition entry is “inactive”.

For the compound `COCOc1ccccc1-c1cc2cc(C)ccc2c(=O)n1C`, the 50% inhibitory concentration (IC50) in experiment [1] was 28.6 µM; in experiment [2], 99.8 µM; in experiment [3] it was 14.3 µM. In experiment [4], the inhibition entry is “inactive”.

Consider `COc1ccc(Cn2c3c(c4cc(C)ccc4c2=O)CCOc2ccccc2-3)cc1`, for which the IC50 in experiment [1] is 10.3 µM; in experiment [2], more than 100 µM; in experiment [3], 9.26 µM. Further, the inhibition result in experiment [4] is “inactive”.

Take `Cc1ccc2c(=O)n(C)c3c(c2c1)C(C)Oc1ccccc1-3` (stereo unspecified): the results for the half-maximal inhibitory concentration (IC50) in experiment [1], in experiment [2] and in experiment [3] were 28.3 µM, 46 µM and 29.1 µM, respectively. Besides, the inhibition in experiment [4] came to 30.4%.

With `CC1Oc2ccccc2-c2c1c1ccccc1c(=O)n2C` (stereo unspecified), the IC50 in experiment [1] turned out to be 40.1 µM; in experiment [2], 65.5 µM; in experiment [3] it was 30.1 µM. The inhibition result in experiment [4] was “inactive”.

As for `CC[C@@]1(O)C(=O)OCc2c1cc1n(c2=O)Cc2cc3ccccc3nc2-1` [CAMPTOTHECIN], the IC50 in experiment [1] worked out at 0.072 µM; in experiment [2], 0.058 µM; in experiment [3], 0.089 µM.
